Consider 1 molecule from patent US12624057B2, “Bisphosphonate quinolone conjugates and uses thereof” (BIOVINC, LLC, priority 2016, dated 2026).

What all share (type): cell-based, Staphylococcus aureus
For assay [1], the system named is S. aureus 6538. As to the kind of experiment: Preventative assay, HA spherules pretreated then inoculated with S. aureus. On the procedure: Preventative ability of BP-ciprofloxacin conjugate to inhibit S. aureus 6538 adherence to HA spherules: Various BP-ciprofloxacin concentrations were introduced to HA powder (spherules) suspended in TSB microbiological medium. Solutions containing conjugate and HA spherules were introduced to wells of 24-well plates. Final concentrations of powder were 10 mg/1 mL, while final concentrations of the conjugate were 0.12-250 mg/L. Suspensions were left for 24 h/37° C./shaking. After 24 h, suspensions were removed from the wells and impulse-centrifuged to precipitate HA powder. Next, supernatant was very gently discarded and a fresh 1 mL of S. aureus of density 10^5 cfu/mL was introduced to the HA spherules. Subsequently, this solution was shaken, absorbance was measured using 580 nm wavelength and left for 24 h/37° C./shaking. After incubation absorbance was measured again and values from 0 hr and 24 hrs were compared to assess reduction of bacterial growth with regard to control sample one (bacterial suspension but no spherules) and control sample two (bacterial suspension+spherules but with no conjugate added). Additionally, solutions were impulse-centrifuged, supernatant was gently discarded, while bacteria-containing HA spherules were culture plated as before and quantitatively assessed. […]

In assay [2] the test system is S. aureus ATCC6538 biofilms. As to the kind of experiment: Survival of S. aureus biofilm on pretreated, rinsed HA discs. The following applies: pretreated HA discs. How it is done: HA discs incubated in DMSO or phosphate buffer served as control samples. Next, discs were rinsed 3 times with sterile water. After rinsing, 2 mL of 0.5 MF of. S. aureus ATCC6538 were introduced to wells containing HA discs as a substrate for biofilm development and biofilms were formed as before.

Assay [3] has as its system biofilms of S. aureus strain ATCC-6538. Nature of the assay: Preformed biofilms on HA discs, S. aureus. The following applies: HA as substrate. On the procedure: Antimicrobial susceptibility testing of BP-ciprofloxacin against preformed biofilms of S. aureus strain ATCC-6538 and P. aeruginosa strain ATCC-15442: Strains cultured on appropriate agar plates (Columbia agar plate for S. aureus; MacConkey agar plate for P. aeruginosa) were transferred to liquid microbiological media and incubated for 24 h/37° C. under aerobic conditions. After incubation, strains were diluted to the density of 1 MF. The microbial dilutions were introduced to wells of 24-well plates containing HA discs as a substrate, or simply to polystyrene wells where the bottom surface of the wells served as the substrate for biofilm development. Strains were incubated at 37° C. for 4 hrs. Next, the microbe-containing solutions were removed from the wells. The surfaces, HA discs and polystyrene plates, were gently rinsed to leave adhered cells and to remove planktonic or loosely-bound microbes. Surfaces prepared in this manner were immersed in fresh TSB medium containing 0.24-125 mg/L of BP-ciprofloxacin conjugate. After 24 hrs of incubation at 37° C. the surfaces were rinsed using physiological saline solution and transferred to 1 mL of 0.5% saponin (Sigma-Aldrich, St Louis, MO). The surfaces were vortex-mixed vigorously for 1 minute to detach cells. Subsequently, all microbial suspensions were diluted 10 to 10^9 times. Each dilution ([…]) was cultured on the appropriate stable medium (MacConkey, Columbia for P. aeruginosa and S. aureus, respectively) and incubated at 37-C for 24 hours. After this time, the microbial colonies were counted and the number of cells forming biofilm was assessed. Results were presented as the mean number of CFU per square millimeter surface±standard error of the mean. To estimate the exact surface area of HA discs, x-ray tomographic analysis was applied. For estimation of the area of test plate bottoms, the equation for circle area: πr2 was applied.
Antimicrobial susceptibility testing of 6 against preformed biofilms of S. aureus strain ATCC-6538 and P. aeruginosa strain ATCC-15442: Strains cultured on appropriate agar plates (Columbia agar plate for S. aureus; MacConkey agar plate for P. aeruginosa) were transferred to liquid microbiological media and incubated for 24 hrs/37° C. under aerobic conditions. After incubation, strains were diluted to the density of 1 MF. The microbial dilutions were introduced to wells of 24-well plates containing HA discs as a substrate, or simply to polystyrene wells where the bottom surface of the wells served as the substrate for biofilm development. Strains were incubated at 37° C. for 4 hrs. Next, the microbe-containing solutions were removed from the wells. The surfaces, HA discs and polystyrene plates, were gently rinsed to leave adhered cells and to remove planktonic or loosely-bound microbes. […] After 24 hrs of incubation at 37° C. the surfaces were rinsed using physiological saline solution and transferred to 1 mL of 0.5% saponin (Sigma-Aldrich, St Louis, MO). The surfaces were vortex-mixed vigorously for 1 minute to detach cells. Subsequently, all microbial suspensions were diluted 10-1 to 10-9 times. Each dilution ([…]) was cultured on the appropriate stable medium (MacConkey, Columbia for P. aeruginosa and S. aureus, respectively) and incubated at 37° C. for 24 hrs. After this time, the microbial colonies were counted and the number of cells forming biofilm was assessed. Results were presented as the mean number of CFU per square millimeter surface±standard error of the mean. To calculate the surface area of HA discs, x-ray tomographic analysis was applied. For estimation of the area of test plate bottoms, the equation for circle area: πr^2 was applied.

Assay [4] concerns planktonic S. aureus clinical osteomyelitis strains (MSSA and MRSA). As to the kind of experiment: MIC by microdilution against planktonic clinical S. aureus strains. The following applies: for antimicrobial activity / MIC against planktonic S. aureus (in words): microdilution, 24 h. On the procedure: (§1) Subsequently, the plate was incubated for 24 h/37° C. in a shaker to obtain optimal conditions for microbial growth and to prevent bacteria from forming biofilms. After incubation, the absorbance was measured once again. The following control samples were established: negative control sample one: sterile medium without microbes; negative control sample two: sterile medium without microbes implemented with DMSO (dimethyl sulfoxide, Sigma-Aldritch) to final concentration of 1% (v/v); positive control sample one: medium+microbes with no compound tested; positive control sample two: medium+microbes with no compound tested but implemented with DMSO to final concentration of 1% (v/v). […] To assess relative number of cells, the following calculations were performed. […] Next, the relative number of cells subjected to incubation with tested compounds were counted as follows: […].
as §1, with “Evaluation of the MIC of tested compounds against planktonic forms of clinical staphylococcal strains analyzed: To assess the impact of parent antibiotic and conjugates on microbial growth, 100 μl of microbial solutions of density 1×10^5 CFU/ml were placed into wells of 96-well test plates together with appropriate concentrations of tested compounds. […] Subsequently,” for “Subsequently,”, “plates were” for “the plate was”, “hrs/37°” for “h/37°”, “Sigma-Aldrich)” for “Sigma-Aldritch)”
The occurrence of opacification or lack of opacification of media was proof of pathogen growth or lack of growth, respectively. Additionally, bacterial solutions were cultured on the appropriate stable medium. Growth or lack of growth of bacterial colonies together with above-mentioned results from liquid cultures served as confirmation of results obtained spectrophotometrically.

“Also recorded” adds a separate entry of the source.

For `O=C(O)c1cn(C2CC2)c2cc(N3CCN(C(=O)c4ccc(CC(P(=O)(O)O)P(=O)(O)O)cc4)CC3)c(F)cc2c1=O` [Compound 11, 1-cyclopropyl-7-(4-(4-(2,2-diphosphonoethyl)benzoyl)piperazin-1-yl)-6-fluoro-4-oxo-1,4-dihydroquinoline-3-carboxylic acid], in assay [1], the “preventative antimicrobial activity on pretreated HA (in words)” value is reported as “insignificant; also recorded: not detectable; also recorded: no antimicrobial activity is observed”. The “ability to prevent biofilm formation on pretreated HA (in words)” value was “no significant antimicrobial activity” in assay [2] and “did not inhibit the growth of biofilms on bone substitute even at very high concentrations” in assay [2] (listed as BAC). The “bactericidal activity / reduction of CFUs against established biofilm (in words)” value in assay [3] is recorded as “insignificant; also recorded: No significant activity is observed at any concentration”. The “concentration of 11 relative to 6 to achieve the same antibacterial effect” value in assay [4] (MIC assay, S. aureus strains) is given as 2-64 ×. The “antimicrobial activity / MIC against planktonic S. aureus (in words)” value is given as “weaker activity” in assay [4] and “very little effect on bacterial growth under any circumstances; also recorded: has lost most of the activity” in assay [4] (listed as BAC).
